The values below are quoted from earlier work in patent publication US20250000839A1, “PHARMACEUTICAL COMPOSITION COMPRISING ENAVOGLIFLOZIN” (DAEWOONG PHARMACEUTICAL CO., LTD., priority 2021, published 2025).

For data set [1] the following is noted: at a very low dose of 1/100th of the dose compared to the same class of drugs.
In another data set the target is T1, human SGLT2 (Homo sapiens, UniProt P31639).
T1 sequence (P31639 1-672): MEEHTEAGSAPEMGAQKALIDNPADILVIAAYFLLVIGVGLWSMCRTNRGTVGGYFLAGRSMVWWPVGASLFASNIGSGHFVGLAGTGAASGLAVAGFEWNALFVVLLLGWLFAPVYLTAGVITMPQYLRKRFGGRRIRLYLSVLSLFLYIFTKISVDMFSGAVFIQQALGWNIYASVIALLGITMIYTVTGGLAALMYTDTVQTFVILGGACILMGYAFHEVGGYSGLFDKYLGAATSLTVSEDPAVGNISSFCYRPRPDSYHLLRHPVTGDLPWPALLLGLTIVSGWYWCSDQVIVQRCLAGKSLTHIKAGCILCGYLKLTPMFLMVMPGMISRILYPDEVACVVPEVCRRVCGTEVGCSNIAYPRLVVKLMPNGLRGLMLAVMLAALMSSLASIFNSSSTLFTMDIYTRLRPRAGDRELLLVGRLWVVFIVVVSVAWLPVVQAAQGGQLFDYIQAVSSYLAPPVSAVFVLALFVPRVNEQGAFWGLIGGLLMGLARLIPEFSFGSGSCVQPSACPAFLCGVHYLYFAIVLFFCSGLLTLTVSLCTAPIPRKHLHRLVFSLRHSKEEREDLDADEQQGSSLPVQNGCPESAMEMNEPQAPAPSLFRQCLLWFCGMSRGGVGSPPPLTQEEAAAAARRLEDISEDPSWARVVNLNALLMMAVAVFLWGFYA
As to conditions: disclosed in U.S. Patent Publication No. 2015/0152075.

For data set [2] the following is noted: phase 2 clinical trials; 0.1 mg, 0.3 mg and 0.5 mg groups.

As for `OC[C@H]1O[C@@H](c2cc(Cc3ccc(C4CC4)cc3)c(Cl)c3c2CCO3)[C@H](O)[C@@H](O)[C@@H]1O` [enavogliflozin, (2S,3R,4R,5S,6R)-2-(7-chloro-6-(4-cyclopropylbenzyl)-2,3-dihydrobenzofuran-4-yl)-6-(hydroxymethyl)tetrahydro-2H-pyran-3,4,5-triol], the “urinary sugar secretion (glucose excreted in urine) efficacy” value in data set [1] is “excellent”. Moreover, the “inhibitory effect on human SGLT2 activity” value on human SGLT2 was “excellent inhibitory effect”. Also, the “blood sugar-lowering effect compared to the placebo” value in data set [2] is reported as “statistically significant blood sugar-lowering effect”.
